In patent US20260042731A1, “(2,4-DICHLOROPHENOXY)ACETIC ACID ANALOGS” (CORTEVA AGRISCIENCE LLC, priority 2022, published 2026):
Structures can show the parent of a compound that is named as a salt. Where two headings read alike, the source gives them in different places.

Assays:
Velvetleaf (ABUTH) = assay: Greenhouse post-emergence mixture trials, percent visual control; type: in vivo; settings: Abutilon theophrasti, post-emergence, 504 h; for pest or weed control at 5 g/ha: Arylex 5 g ai or ae/ha alone
[1] = system: Common Lambsquarters (CHEAL); assay: as above; type: in vivo
Corn (ZEAMX) = assay: as above; type: in vivo
[2] = Volatility of compounds measured by thermogravimetric analysis (TGA); type: physicochemical
[3] = system: Abutilon theophrasti (ABUTH), velvetleaf; assay: Postemergence herbicide evaluation, growth of Abutilon theophrasti (ABUTH); type: in vivo; settings: Abutilon theophrasti, post-emergence; for pest or weed control at 280 g/ha: 280 g ae/ha; for pest or weed control at 560 g/ha: 560 g ae/ha
[4] = system: weeds ABUTH, AMATA, AMBEL, CHEAL, ERICA; assay: Postemergence herbicide evaluation, overall average % weed control across ABUTH, AMATA, AMBEL, CHEAL and ERICA; type: in vivo; settings: post-emergence, average over five weeds, read-out: Overall Ave % Weed Control; for pest or weed control at 560 g/ha: 560 g ae/ha
[5] = system: weeds ABUTH, AMATA, AMBEL, CHEAL, ERICA; assay: Postemergence herbicide evaluation, overall average % weed control (ABUTH, AMATA, AMBEL, CHEAL, ERICA); type: in vivo; settings: post-emergence, read-out: Overall Ave % Weed Control; for pest or weed control at 280 g/ha: 280 g ae/ha
[6] = system: glyphosate resistant Conyza canadensis (L.) (ERICA), horseweed; assay: Postemergence herbicide evaluation, growth of Conyza canadensis (ERICA); type: in vivo; settings: Erigeron canadensis, post-emergence; for pest or weed control at 280 g/ha: 280 g ae/ha; for pest or weed control at 560 g/ha: 560 g ae/ha
[7] = system: Amaranthus rudis (AMATA), tall water hemp; assay: Postemergence herbicide evaluation, growth of Amaranthus rudis (AMATA); type: in vivo; settings: Amaranthus tuberculatus, post-emergence; for pest or weed control at 280 g/ha: 280 g ae/ha; for pest or weed control at 560 g/ha: 560 g ae/ha
[8] = system: Chenopodium album (CHEAL), common lambsquarters; assay: Postemergence herbicide evaluation, growth of Chenopodium album (CHEAL); type: in vivo; settings: Chenopodium album, post-emergence; for pest or weed control at 280 g/ha: 280 g ae/ha; for pest or weed control at 560 g/ha: 560 g ae/ha
[9] = system: Ambrosia artemisiifolia (AMBEL), common ragweed; assay: Postemergence herbicide evaluation, growth of Ambrosia artemisiifolia (AMBEL); type: in vivo; settings: Ambrosia artemisiifolia, post-emergence; for pest or weed control at 280 g/ha: 280 g ae/ha; for pest or weed control at 560 g/ha: 560 g ae/ha
[10] = 168 h, 7 DAA, read-out: AVE. ABUTH, percent reduction in plant size relative to the untreated control
[11] = 504 h, 21 DAA, percent reduction in plant size vs untreated control, read-out: AVE. ABUTH
[12] = 168 h, 7 DAA, read-out: Ave. ERICA, percent reduction in plant size relative to the untreated control
[13] = 504 h, 21 DAA, percent reduction in plant size vs untreated control, read-out: Ave. ERICA
[14] = 168 h, 7 DAA, read-out: Ave. AMATA, percent reduction in plant size relative to the untreated control
[15] = 504 h, 21 DAA, percent reduction in plant size vs untreated control, read-out: Ave. AMATA
[16] = 168 h, 7 DAA, read-out: Ave. CHEAL, percent reduction in plant size relative to the untreated control
[17] = 504 h, 21 DAA, percent reduction in plant size vs untreated control, read-out: Ave. CHEAL
[18] = 168 h, 7 DAA, read-out: AVE. AMBEL, percent reduction in plant size relative to the untreated control
[19] = 504 h, 21 DAA, percent reduction in plant size vs untreated control, read-out: AVE. AMBEL
[20] = Zea mays, post-emergence, 504 h, read-out: % Control
[21] = Chenopodium album, post-emergence, 504 h, read-out: % Control

SMILES: COC(=O)c1nc(-c2ccc(Cl)c(OC)c2F)cc(N)c1Cl [Arylex, halauxifen-methyl, reference compound]
- pest or weed control at 5 g/ha (Velvetleaf (ABUTH); Trial 2 Trt 19, B2 0 g ae/ha, ABUTH, 21 DAA): 100%
- pest or weed control at 65 g/ha (Velvetleaf (ABUTH); Trial 2 Trt 22, B2 0 g ae/ha, Arylex 65 g ai or ae/ha alone, ABUTH, 21 DAA): 100%
- pest or weed control at 5 g/ha (Velvetleaf (ABUTH); Trial Bridge 1 Trt 7, ABUTH, D10 0 g ae/ha, 21 DAA): 100%
- pest or weed control at 5 g/ha ([1]; Chenopodium album, post-emergence, 504 h, Trial 2 Trt 19: B2 0 g ae/ha, Arylex 5 g ai or ae/ha alone, CHEAL, 21 DAA): 100%
- pest or weed control at […] ([1]; Chenopodium album, post-emergence, 504 h, Trial 2 Trt 22: B2 0 g ae/ha, Arylex 6.5 g ai or ae/ha alone, CHEAL, 21 DAA): 100%
- % Control ([1]; Trial Bridge 1, CHEAL, mixing partner alone (D10 at 0 g ae/ha), Arylex 5 g ai or ae/ha, 21 DAA): 100%
- plant injury at 5 g/ha (Corn (ZEAMX); Zea mays, post-emergence, 504 h, Trial 2 Trt 19, ZEAMX, B2 0 g ae/ha, Arylex 5 g ai or ae/ha alone, 21 DAA): 70%
- plant injury at […] (Corn (ZEAMX); Zea mays, post-emergence, 504 h, Trial 2 Trt 22, ZEAMX, B2 0 g ae/ha, Arylex 6.5 g ai or ae/ha alone, 21 DAA): 75%
- plant injury at 5 g/ha (Corn (ZEAMX); Zea mays, post-emergence, 504 h, Trial Bridge 1, ZEAMX, Arylex 5 g ai or ae/ha alone (compound rate 0), 21 DAA, single replicate): 65%

SMILES: COc1ncc(OC(=O)COc2ccc(Cl)cc2Cl)cn1 [Compound E12]
- TGA Data (rate of weight loss, volatility) [2]: 0.04464 µg/min
- pest or weed control at 280 g/ha [3, 10]: 50%
- pest or weed control at 560 g/ha [3, 10]: 50%
- pest or weed control at 280 g/ha ([3]; 336 h, 14 DAA, read-out: AVE. ABUTH, percent reduction in plant size relative to the untreated control): 60%
- pest or weed control at 560 g/ha ([3]; 336 h, 14 DAA, percent reduction in plant size vs untreated control, read-out: AVE. ABUTH): 52.5%
- pest or weed control at 280 g/ha [3, 11]: 65%
- pest or weed control at 560 g/ha [3, 11]: 62.5%
- pest or weed control at 560 g/ha ([4]; 336 h, 14 DAA): 85%
- pest or weed control at 280 g/ha ([4]; 504 h, 280 g ae/ha, 21 DAA): 83.8%
- pest or weed control at 560 g/ha ([4]; 504 h, 21 DAA): 87.5%
- pest or weed control at 280 g/ha ([5]; 168 h, 7 DAA): 69.5%
- pest or weed control at 560 g/ha ([5]; 168 h, 560 g ae/ha, 7 DAA): 73.5%
- pest or weed control at 280 g/ha ([5]; 336 h, 14 DAA): 79.5%
- pest or weed control at 280 g/ha [6, 12]: 75%
- pest or weed control at 560 g/ha [6, 12]: 85%
- pest or weed control at 280 g/ha ([6]; 336 h, 14 DAA, read-out: Ave. ERICA, percent reduction in plant size relative to the untreated control): 97.5%
- pest or weed control at 560 g/ha ([6]; 336 h, 14 DAA, percent reduction in plant size vs untreated control, read-out: Ave. ERICA): 100%
- pest or weed control at 280 g/ha [6, 13]: 96.5%
- pest or weed control at 560 g/ha [6, 13]: 100%
- pest or weed control at 280 g/ha [7, 14]: 70%
- pest or weed control at 560 g/ha [7, 14]: 75%
- pest or weed control at 280 g/ha ([7]; 336 h, 14 DAA, read-out: Ave. AMATA, percent reduction in plant size relative to the untreated control): 80%
- pest or weed control at 560 g/ha ([7]; 336 h, 14 DAA, percent reduction in plant size vs untreated control, read-out: Ave. AMATA): 87.5%
- pest or weed control at 280 g/ha [7, 15]: 70%
- pest or weed control at 560 g/ha [7, 15]: 87.5%
- pest or weed control at 280 g/ha [8, 16]: 77.5%
- pest or weed control at 560 g/ha [8, 16]: 80%
- pest or weed control at 280 g/ha ([8]; 336 h, 14 DAA, read-out: Ave. CHEAL, percent reduction in plant size relative to the untreated control): 90%
- pest or weed control at 560 g/ha ([8]; 336 h, 14 DAA, percent reduction in plant size vs untreated control, read-out: Ave. CHEAL): 95%
- pest or weed control at 280 g/ha [8, 17]: 87.5%
- pest or weed control at 560 g/ha [8, 17]: 87.5%
- pest or weed control at 280 g/ha [9, 18]: 75%
- pest or weed control at 560 g/ha [9, 18]: 77.5%
- pest or weed control at 280 g/ha ([9]; 336 h, 14 DAA, read-out: AVE. AMBEL, percent reduction in plant size relative to the untreated control): 70%
- pest or weed control at 560 g/ha ([9]; 336 h, 14 DAA, percent reduction in plant size vs untreated control, read-out: AVE. AMBEL): 90%
- pest or weed control at 280 g/ha [9, 19]: 100%
- pest or weed control at 560 g/ha [9, 19]: 100%

SMILES: CCOc1nc(F)cc2nc(S(=O)(=O)Nc3c(Cl)cccc3Cl)nn12 [Diclosulam]
- pest or weed control at 25 g/ha (Velvetleaf (ABUTH); Trial 2 Trt 13, B2 0 g ae/ha, Diclosulam 25 g ai or ae/ha alone, ABUTH, 21 DAA): 100%
- pest or weed control at 35 g/ha (Velvetleaf (ABUTH); Trial 2 Trt 16, B2 0 g ae/ha, Diclosulam 35 g ai or ae/ha alone, ABUTH, 21 DAA): 98%
- pest or weed control at 35 g/ha (Velvetleaf (ABUTH); Trial Bridge 1 Trt 4, ABUTH, D10 0 g ae/ha, diclosulam 35 g ai or ae/ha alone, 21 DAA): 100%
- pest or weed control at 25 g/ha ([1]; Chenopodium album, post-emergence, 504 h, Trial 2 Trt 13: B2 0 g ae/ha, Diclosulam 25 g ai or ae/ha alone, CHEAL, 21 DAA): 40%
- % Control (Corn (ZEAMX); Trial Bridge 1, ZEAMX, diclosulam 35 g ai or ae/ha alone (compound rate 0), 21 DAA, single replicate): 70%
- plant injury at 25 g/ha (Corn (ZEAMX); Zea mays, post-emergence, 504 h, Trial 2 Trt 13, ZEAMX, B2 0 g ae/ha, Diclosulam 25 g ai or ae/ha alone, 21 DAA): 80%
- plant injury at 35 g/ha (Corn (ZEAMX); Zea mays, post-emergence, 504 h, Trial 2 Trt 16, ZEAMX, B2 0 g ae/ha, Diclosulam 35 g ai or ae/ha alone, 21 DAA): 95%
- plant injury at 35 g/ha (Corn (ZEAMX); Zea mays, post-emergence, 504 h, Trial Bridge 1, ZEAMX, diclosulam 35 g ai or ae/ha alone (compound rate 0), 21 DAA, single replicate): 70%

SMILES: CP(=O)(O)CCC(N)C(=O)O (stereo not shown) [Glufosinate, 2-amino-4-(hydroxy(methyl)phosphinyl)butanoic acid ammonium salt]
- pest or weed control at 200 g/ha (Velvetleaf (ABUTH); read-out: % Control): 5%
- plant injury at 200 g/ha (Corn (ZEAMX); [20]): 5%
- plant injury at 900 g/ha (Corn (ZEAMX); [20]): 10%

SMILES: O=C(O)CNCP(=O)(O)O [Glyphosate, N-(phosphonomethyl) glycine, reference compound]
- pest or weed control at 375 g/ha (Velvetleaf (ABUTH); read-out: % Control): 85%
- pest or weed control at 1120 g/ha (Velvetleaf (ABUTH); read-out: % Control): 100%
- pest or weed control at 1680 g/ha (Velvetleaf (ABUTH); read-out: % Control): 100%
- pest or weed control at 375 g/ha [1, 21]: 50%
- pest or weed control at 1120 g/ha [1, 21]: 65%
- pest or weed control at 1680 g/ha [1, 21]: 85%
- plant injury at 375 g/ha (Corn (ZEAMX); [20]): 70%
